According to PubChem BioAssay (NCI):
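Grown in 96-well plates, cells were treated for 48 hours with each compound at five concentrations. Insufficient inhibition: endpoint recorded as highest concentration tested. At the TGI there is no net growth.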

Key:
Experiment in all cases: NCI tumour cell line growth inhibition, 48 h
786-0 renal = tested on: 786-0 renal
A549 NSCLC = tested on: A549 NSCLC
ACHN renal = tested on: ACHN renal
CAKI-1 renal = tested on: CAKI-1 renal
CCRF-CEM leukemia = tested on: CCRF-CEM leukemia
COLO 205 colon = tested on: COLO 205 colon
DLD-1 colon = tested on: DLD-1 colon
DMS 114 small cell lung = tested on: DMS 114 small cell lung
DMS 273 small cell lung = tested on: DMS 273 small cell lung
HCC-2998 colon = tested on: HCC-2998 colon
HCT-116 colon = tested on: HCT-116 colon
HCT-15 colon = tested on: HCT-15 colon
HL-60(TB) leukemia = tested on: HL-60(TB) leukemia
HOP-62 NSCLC = tested on: HOP-62 NSCLC
HOP-92 NSCLC = tested on: HOP-92 NSCLC
HT29 colon = tested on: HT29 colon
IGROV1 ovarian = tested on: IGROV1 ovarian
K-562 leukemia = tested on: K-562 leukemia
KM12 colon = tested on: KM12 colon
KM20L2 colon = tested on: KM20L2 colon
LOX IMVI melanoma = tested on: LOX IMVI melanoma
LXFL 529 NSCLC = tested on: LXFL 529 NSCLC
M14 melanoma = tested on: M14 melanoma
M19-MEL melanoma = tested on: M19-MEL melanoma
MALME-3M melanoma = tested on: MALME-3M melanoma
MOLT-4 leukemia = tested on: MOLT-4 leukemia
NCI-H226 lung = tested on: NCI-H226 lung
NCI-H23 lung = tested on: NCI-H23 lung
NCI-H460 lung = tested on: NCI-H460 lung
NCI-H522 lung = tested on: NCI-H522 lung
OVCAR-3 ovarian = tested on: OVCAR-3 ovarian
OVCAR-4 ovarian = tested on: OVCAR-4 ovarian
OVCAR-5 ovarian = tested on: OVCAR-5 ovarian
OVCAR-8 ovarian = tested on: OVCAR-8 ovarian
RPMI-8226 leukemia = tested on: RPMI-8226 leukemia
RXF 393 renal = tested on: RXF 393 renal
RXF-631 renal = tested on: RXF-631 renal
SF-268 CNS = tested on: SF-268 CNS
SF-295 CNS = tested on: SF-295 CNS
SF-539 CNS = tested on: SF-539 CNS
SK-MEL-28 melanoma = tested on: SK-MEL-28 melanoma
SK-MEL-5 melanoma = tested on: SK-MEL-5 melanoma
SK-OV-3 ovarian = tested on: SK-OV-3 ovarian
SN12C renal = tested on: SN12C renal
SNB-19 CNS = tested on: SNB-19 CNS
SNB-75 CNS = tested on: SNB-75 CNS
SNB-78 CNS = tested on: SNB-78 CNS
SR leukemia = tested on: SR leukemia
SW-620 colon = tested on: SW-620 colon
U251 CNS = tested on: U251 CNS
UACC-257 melanoma = tested on: UACC-257 melanoma
UACC-62 melanoma = tested on: UACC-62 melanoma
UO-31 renal = tested on: UO-31 renal
XF 498 CNS = tested on: XF 498 CNS

Measured: TGI

COc1ccc(/C(=N\N=C(N)N)C(c2ccc(OC)cc2)C2OC(=O)c3ccccc32)cc1 (centres undefined)
> 100 µM: all assays above
